The values that follow come from US6461859B1, “Enzymatic oxidation process for desulfurization of fossil fuels” (Instituto Mexicano del Petroleo, priority 1999, dated 2002).

Assay [1] concerns the target T1, poly(ethylene)glycol-modified cytochrome c (PEG-Cyt) (Equus caballus, UniProt P00004).
T1 construct: made in house
The assay can be described thus: Oxidation of low-sulfur diesel oil enriched with dibenzothiophene (gas chromatogram). The settings on record: desulfurized diesel oil enriched with 10 g/l DBT, PEG-Cyt and hydrogen peroxide, GC FID/FPD. In kind it is biochemical. An excerpt: Desulfurized diesel oil (<0.05% of sulfur) is enriched with 10 g/l of DBT and treat with poly(ethylene)glycol-modified cytochrome c (PEG-Cyt) and hydrogen peroxide. […] DBT sulfoxide is an unstable compound which may be oxidized to form DBT sulfone. Cytochrome c is a biocatalyst able to oxidize thiophenes and organosulfides [Vazquez-Duhalt et al Enzyme Microb. Technol. 15 (1993) 494] and has several advantages when compared with other hemoenzymes. […] Technol. 15 (1993) 494; Vazquez-Duhalt et al Enzyme Microb. Technol. 15 (1993) 936.]. In addition, this biocatalyst can be modified by site-directed mutagenesis [E. Torres et al. Enzyme Microb. Technol. 17 (1995) 1014.] and by chemical modification [Tinoco and Vazquez-Duhalt. Enzyme Microb. Technol. 22 (1998) 8.] to improve both its catalytic activity and range of substrates. PEG-modified enzymes are soluble in organic solvents and their activity in organic solvents is increased because of the reduction of mass transfer limitations in the system [Vazquez-Duhalt et al. Enzyme Microb. Technol. 14 (1992) 837].

A short description of assay [2]: Biocatalytic oxidation of primary diesel fuel followed by distillation. The settings on record: chloroperoxidase treatment of primary diesel oil followed by distillation. The protocol:
After biocatalytic oxidation of the fossil fuel a second process of separation of oxidized organosulfur compounds is envisaged. Because the boiling points of sulfur compounds are incersed after biocatlytic oxidation to sulfoxides, it is possible to remove them by a single distillation. Oxidized sulfur compounds can be removed by decreasing the final distillation point. When primary diesel fuel containing 1.6% sulfur is distilled in order to obtain a 100% distillation at a temperature 50° C. lower than the original fraction, it produces a diesel fuel containing 1.27% of sulfur and 83% of the original hydrocarbons. […] Thus, a biocatalytic treatment of primary diesel oil with chloroperoxidase from Caldariomyces fumago, followed by a distillation is able to reduce the sulfur content by 80%.

T1 sequence (P00004 2-105 limits assumed): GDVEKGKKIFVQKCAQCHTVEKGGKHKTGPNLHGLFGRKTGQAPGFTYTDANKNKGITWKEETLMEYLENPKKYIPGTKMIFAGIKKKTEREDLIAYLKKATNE

Regarding `c1ccc2c(c1)sc1ccccc12` [Dibenzothiophene], the “biocatalytic transformation of DBT” value in assay [1] is on record as “transformed to DBT sulfoxide”.

B1: chloroperoxidase: chloroperoxidase (EC 1.11.1.10) from Caldariomyces fumago, hemoprotein biocatalyst (protein, UniProt P04963 21-319, looked up)
Chloroperoxidase: QEPGSGIGYPYDNNTLPYVAPGPTDSRAPCPALNALANHGYIPHDGRAISRETLQNAFLNHMGIANSVIELALTNAFVVCEYVTGSDCGDSLVNLTLLAEPHAFEHDHSFSRKDYKQGVANSNDFIDNRNFDAETFQTSLDVVAGKTHFDYADMNEIRLQRESLSNELDFPGWFTESKPIQNVESGFIFALVSDFNLPDNDENPLVRIDWWKYWFTNESFPYHLGWHPPSPAREIEFVTSASSAVLAASVTSTPSSLPSGAIGPGAEAVPLSFASTMTPFLLATNAPYYAQDPTLGPND
For the molecule B1, in assay [2], the “reduction of sulfur content” value is reported as 80%.
